# Assay results as given in patent publication US11312723B2, “Pyranopyrazole and pyrazolopyridine immunomodulators for treatment of autoimmune diseases” (The Rockefeller University, priority 2017, dated 2022).
# Structures can show the parent of a compound that is named as a salt.
# How the values were obtained:
# Human FXIIa = Human FXIIa (Homo sapiens (Human), UniProt P00748); test: Factor XIIa (FXIIa) inhibitory activity, chromogenic substrate (Pefachrome XIIa) cleavage; assay type: biochemical; conditions: 10 min pre-incubation, Pefachrome XIIa 400 μM
# Human FXIIa, sequence (P00748 373-615): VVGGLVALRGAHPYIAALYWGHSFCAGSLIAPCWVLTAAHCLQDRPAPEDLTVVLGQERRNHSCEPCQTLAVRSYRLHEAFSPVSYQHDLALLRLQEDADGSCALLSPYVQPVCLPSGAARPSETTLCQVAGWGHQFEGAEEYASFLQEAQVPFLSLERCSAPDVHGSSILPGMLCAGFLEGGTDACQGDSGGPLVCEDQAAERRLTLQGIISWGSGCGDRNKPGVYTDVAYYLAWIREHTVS
# Human FXIIa, sequence (P00748 20-372 partner): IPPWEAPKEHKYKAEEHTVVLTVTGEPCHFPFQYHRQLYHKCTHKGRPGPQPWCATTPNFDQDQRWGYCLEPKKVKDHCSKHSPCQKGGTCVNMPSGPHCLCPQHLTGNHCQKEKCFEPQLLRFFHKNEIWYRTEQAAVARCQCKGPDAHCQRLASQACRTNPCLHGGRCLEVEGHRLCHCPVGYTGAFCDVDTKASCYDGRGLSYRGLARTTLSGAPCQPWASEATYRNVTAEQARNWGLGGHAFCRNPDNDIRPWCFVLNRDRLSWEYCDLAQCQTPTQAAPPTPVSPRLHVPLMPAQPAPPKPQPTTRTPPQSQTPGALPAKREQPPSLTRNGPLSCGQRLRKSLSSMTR
# Human alpha-thrombin = Human alpha-thrombin (Homo sapiens (Human), UniProt P00734); test: Thrombin counterscreen for selectivity, fluorogenic substrate cleavage; assay type: biochemical; conditions: 10 min pre-incubation, Boc-Val-Pro-Arg-AMC 20 μM
# Method: Counterscreens for Selectivity:
# Thrombin. In a 96-well white opaque plate, 80 μl of assay buffer was added to each well. Test compounds were added, and serially diluted as above, to generate a concentration range of approximately 1-100 μM. Human alpha-thrombin (Enzyme Research Labs) was diluted in assay buffer to a final concentration of 12.5 nM. 80 μl of this enzyme solution was added to the assay wells. The enzyme/compound mixtures were incubated for 10 minutes at room temperature. Fluorogenic substrate (Boc-Val-Pro-Arg-7-amido-4-methylcoumarin; Sigma) was added to assay wells at a final concentration of 20 μM. The assay plate was spun for 1 minute at 1500 g and then read at 37° C. in a SpectraMax M2 plate reader (λex=380 nm and λem=460 nm). Activity was quantified as the rate of change in fluorescence, which corresponds to the rate of substrate cleavage. IC50 values were determined as the concentration of inhibitor that produced 50% of the rate of change of control wells without any inhibitor. For compounds with activity <1 μM, the assay was repeated with a lower concentration range, typically from 10-1000 nM.
IC50 (Human FXIIa),IC50 (Human alpha-thrombin),Compound
0.05 µM,22 µM,"CCc1ccc2c(c1)C(C(=O)n1nc3c(c1N)CCN(S(C)(=O)=O)C3)CCN2 (centres unmarked) [Example 30, (3-amino-6-(methylsulfonyl)-4,5,6,7-tetrahydropyrazolo[3,4-c]pyridin-2-yl)(6-ethyl-1,2,3,4-tetrahydroquinolin-4-yl)methanone]"
> 65 µM,> 70 µM,"CS(=O)(=O)N1CCc2c(N)nn(C(=O)C3CCNc4ccc(Cl)cc43)c2C1 (centres unmarked) [Example 15, (3-amino-6-(methylsulfonyl)-4,5,6,7-tetrahydropyrazolo[3,4-c]pyridin-1-yl)(6-chloro-1,2,3,4-tetrahydroquinolin-4-yl)methanone]"
0.7 µM,15 µM,"Nc1c2c(nn1C(=O)C1CCNc3ccc(F)cc31)CN(S(=O)(=O)c1cccnc1)CC2 (centres unmarked) [Example 157, (3-amino-6-(pyridin-3-ylsulfonyl)-4,5,6,7-tetrahydro-pyrazolo[3,4-c]pyridin-2-yl)(6-fluoro-1,2,3,4-tetrahydro-quinolin-4-yl)methanone]"
0.3 µM,> 55 µM,"Cc1ccc2c(c1)C(C(=O)n1nc3c(c1N)CCN(S(C)(=O)=O)C3)CCN2 (centres unmarked) [Example 12, (3-amino-6-(methylsulfonyl)-4,5,6,7-tetrahydropyrazolo[3,4-c]pyridin-2-yl)(6-methyl-1,2,3,4-tetrahydroquinolin-4-yl)methanone]"
0.13 µM,60 µM,"Nc1c2c(nn1C(=O)C1CCNc3ccc(F)cc31)CN(S(=O)(=O)CF)CC2 (centres unmarked) [Example 140, (3-amino-6-(fluoromethyl-sulfonyl)-4,5,6,7-tetrahydro-pyrazolo[3,4-c]pyridin-2-yl)(6-fluoro-1,2,3,4-tetrahydro-quinolin-4-yl)methanone]"
0.15 µM,> 40 µM,"CCN1CCc2c(nn(C(=O)C3CCNc4ccccc43)c2N)C1 (centres unmarked) [Example 20, (3-amino-6-ethyl-4,5,6,7-tetrahydropyrazolo[3,4-c]pyridin-2-yl)(1,2,3,4-tetrahydroquinolin-4-yl)methanone]"
0.08 µM,50 µM,"Nc1c2c(nn1C(=O)C1CCNc3ccc(F)cc31)CCOC2 (centres unmarked) [Example 74, (3-amino-6,7-dihydropyrano[4,3-c]pyrazol-2(4H)-yl)(6-fluoro-1,2,3,4-tetrahydroquinolin-4-yl)methanone]"
0.06 µM,20 µM,"CS(=O)(=O)N1CCc2c(nn(C(=O)C3CCNc4ccc(F)cc43)c2N)C1 (single isomer, unassigned) [Example 16, (3-amino-6-(methylsulfonyl)-4,5,6,7-tetrahydropyrazolo[3,4-c]pyridin-2-yl)(6-fluoro-1,2,3,4-tetrahydroquinolin-4-yl)methanone]"
0.1 µM,25 µM,"CS(=O)(=O)N1CCc2c(nn(C(=O)C3CCNc4ccc(C(F)(F)F)cc43)c2N)C1 (centres unmarked) [Example 24, (3-amino-6-(methylsulfonyl)-4,5,6,7-tetrahydropyrazolo[3,4-c]pyridin-2-yl)(6-(trifluoromethyl)-1,2,3,4-tetrahydroquinolin-4-yl)methanone]"
0.2 µM,40 µM,"Nc1c2c(nn1C(=O)C1CCNc3ccc(F)cc31)CN(S(=O)(=O)CC(F)F)CC2 (centres unmarked) [Example 142, (3-amino-6-(2,2-difluoroethyl-sulfonyl)-4,5,6,7-tetrahydro-pyrazolo[3,4-c]pyridin-2-yl)(6-fluoro-1,2,3,4-tetrahydro-quinolin-4-yl)methanone]"
0.15 µM,> 70 µM,"CS(=O)(=O)N1CCc2c(nn(C(=O)C3CCNc4c3cccc4C(F)(F)F)c2N)C1 (centres unmarked) [Example 67, (3-amino-6-(methylsulfonyl)-4,5,6,7-tetrahydropyrazolo[3,4-c]pyridin-2-yl)(8-(trifluoromethyl)-1,2,3,4-tetrahydroquinolin-4-yl)methanone]"
0.08 µM,28 µM,"CS(=O)(=O)N1CCc2c(nn(C(=O)[C@H]3CCNc4ccccc43)c2N)C1 (single isomer, unassigned) [Example 135, (S*)-(3-amino-6-(methylsulfonyl)-4,5,6,7-tetrahydro-pyrazolo[3,4-c]pyridin-2-yl)(1,2,3,4-tetrahydro-quinolin-4-yl)methanone]"
15 µM,> 75 µM,"CCC(=O)N1CCc2c(N)nn(C(=O)C3CCNc4ccccc43)c2C1 (centres unmarked) [Example 120, 1-(3-amino-1-(1,2,3,4-tetrahydro-quinoline-4-carbonyl)-4,5-dihydro-1H-pyrazolo[3,4-c]pyridin-6(7H)-yl)propan-1-one]"
0.05 µM,16 µM,"CS(=O)(=O)N1CCc2c(nn(C(=O)C3CCNc4c(Cl)cccc43)c2N)C1 (centres unmarked) [Example 57, (3-amino-6-(methylsulfonyl)-4,5,6,7-tetrahydropyrazolo[3,4-c]pyridin-2-yl)(8-chloro-1,2,3,4-tetrahydroquinolin-4-yl)methanone]"
0.04 µM,> 70 µM,"CC(C)N1CCc2c(nn(C(=O)C3CCNc4ccc(F)cc43)c2N)C1 (centres unmarked) [Example 151, Formic Acid salt of (3-amino-6-isopropyl-4,5,6,7-tetrahydro-pyrazolo[3,4-c]pyridin-2-yl)(6-fluoro-1,2,3,4-tetrahydro-quinolin-4-yl)methanone]"
0.8 µM,> 100 µM,"COC(=O)N1CCc2nn(C(=O)C3CCNc4ccccc43)c(N)c2C1 (centres unmarked) [Example 87, methyl 3-amino-2-(1,2,3,4-tetrahydro-quinoline-4-carbonyl)-6,7-dihydro-2H-pyrazolo[4,3-c]pyridine-5(4H)-carboxylate]"
0.35 µM,30 µM,"CS(=O)(=O)N1CCc2c(nn(C(=O)C3CCNc4ccccc43)c2N)C1 (centres unmarked) [Example 103, (3-amino-6-(methylsulfonyl)-4,5,6,7-tetrahydro-pyrazolo[3,4-c]pyridin-2-yl)(1,2,3,4-tetrahydro-quinolin-4-yl)methanone]"
11 µM,17 µM,"CS(=O)(=O)N1CCc2c(nn(C(=O)C3CCNc4ccc(-c5ccccc5)cc43)c2N)C1 (centres unmarked) [Example 49, (3-amino-6-(methylsulfonyl)-4,5,6,7-tetrahydropyrazolo[3,4-c]pyridin-2-yl)(6-phenyl-1,2,3,4-tetrahydroquinolin-4-yl)methanone]"
1.5 µM,12 µM,"CNC(=O)N1CCc2c(c(N)nn2C(=O)C2CCNc3ccccc32)C1 (centres unmarked) [Example 90, 3-amino-N-methyl-1-(1,2,3,4-tetrahydro-quinoline-4-carbonyl)-6,7-dihydro-1H-pyrazolo[4,3-c]pyridine-5(4H)-carboxamide]"
1.5 µM,> 70 µM,"CS(=O)(=O)N1CCc2nn(C(=O)C3CCNc4ccccc43)c(N)c2C1 (centres unmarked) [Example 91, (3-amino-5-(methylsulfonyl)-4,5,6,7-tetrahydro-pyrazolo[4,3-c]pyridin-2-yl)(1,2,3,4-tetrahydro-quinolin-4-yl)methanone]"
8.5 µM,> 80 µM,"CN1CCc2nn(C(=O)C3CCCc4[nH]ccc43)c(N)c2C1 (centres unmarked) [Example 97, (3-amino-5-methyl-4,5,6,7-tetrahydro-pyrazolo[4,3-c]pyridin-2-yl)(4,5,6,7-tetrahydro-1H-indol-4-yl)methanone]"
0.25 µM,> 50 µM,"CCc1cc2c([nH]1)CCCC2C(=O)n1nc2c(c1N)CNCC2 (centres unmarked) [Example 6, (3-amino-4,5,6,7-tetrahydropyrazolo[4,3-c]pyridin-2-yl)(2-ethyl-4,5,6,7-tetrahydro-1H-indol-4-yl)methanone]"
0.03 µM,60 µM,"Cc1cc2c(C(=O)n3nc4c(c3N)CN(C)CC4)cccc2[nH]1 [Example 85, (3-amino-5-methyl-4,5,6,7-tetrahydro-pyrazolo[4,3-c]pyridin-2-yl)(2-methyl-1H-indol-4-yl)methanone]"
0.02 µM,10 µM,"Cc1cc2c(C(=O)n3nc4c(c3N)CCN(S(C)(=O)=O)C4)cccc2[nH]1 [Example 101, (3-amino-6-(methylsulfonyl)-4,5,6,7-tetrahydro-pyrazolo[3,4-c]pyridin-2-yl)(2-methyl-1H-indol-4-yl)methanone]"
0.08 µM,> 55 µM,"CC(C)S(=O)(=O)N1CCc2c(nn(C(=O)C3CCNc4ccc(F)cc43)c2N)C1 (centres unmarked) [Example 136, (3-amino-6-(isopropyl-sulfonyl)-4,5,6,7-tetrahydro-pyrazolo[3,4-c]pyridin-2-yl)(6-fluoro-1,2,3,4-tetrahydro-quinolin-4-yl)methanone]"
0.8 µM,> 75 µM,"Nc1c2c(nn1C(=O)C1CCNc3ccccc31)CN(C(=O)c1ccccc1)CC2 (centres unmarked) [Example 109, (3-amino-2-(1,2,3,4-tetrahydro-quinoline-4-carbonyl)-4,5-dihydro-2H-pyrazolo[3,4-c]pyridin-6(7H)-yl)(phenyl)-methanone]"
0.08 µM,> 100 µM,"CC(C)(C)S(=O)(=O)N1CCc2c(nn(C(=O)C3CCNc4ccc(F)cc43)c2N)C1 (centres unmarked) [Example 138, (3-amino-6-(tert-butylsulfonyl)-4,5,6,7-tetrahydro-pyrazolo[3,4-c]pyridin-2-yl)(6-fluoro-1,2,3,4-tetrahydro-quinolin-4-yl)methanone]"
0.35 µM,> 35 µM,"CN1CCc2nn(C(=O)C3CCCc4[nH]c(Cl)cc43)c(N)c2C1 (centres unmarked) [Example 3, (3-amino-5-methyl-4,5,6,7-tetrahydropyrazolo[4,3-c]pyridin-2-yl)(2-chloro-4,5,6,7-tetrahydro-1H-indol-4-yl)methanone]"
